Measured values taken from patent US6355799B1, “Substituted benzene compounds, process for their preparation, and herbicidal and defoliant compositions containing them” (ISK Americas Incorporated, priority 1997, dated 2002).

Tests used:
Format in all cases: in vivo
[1] = test system: redroot pigweed (Amaranthus retroflexus, AMARE); assay: Pre-emerge test, greenhouse herbicide activity screening; conditions: pre-emerge, 14 days after application, rating scale 0-100
Summary of the method: (§1)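 Compounds in acetone were track-sprayed at 15-1000 g ai/ha (187 l/ha) on sandy loam pots: pre-emerge one day after seeding, post-emerge at 2-3 leaf stage with 0.25% v/v non-ionic surfactant. Phytotoxicity was rated 14 days later on a 0 (no damage) to 100 (complete death) scale.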

[2] = test system: upland rice (Oryza sp., var. Tebonnet, RICE); assay: Post-emerge test, crop safety; conditions: rating scale 0-100 (0 no damage, 100 complete death), 14 days after application
Summary of the method: as §1

[3] = test system: field corn (Zea mays L., var. Dekalb 535, CORN); assay: Post-emerge test, crop safety; conditions: rating scale 0-100 (0 no damage, 100 complete death), 14 days after application
Summary of the method: as §1

[4] = test system: velvetleaf (Abutilon theophrasti, ABUTH); assay: Pre-emerge test, greenhouse herbicide activity screening; conditions: pre-emerge, 14 days after application, rating scale 0-100
Summary of the method: as §1

[5] = test system: barnyardgrass (Echinochloa crus-galli, ECHCG); assay: as above; conditions: pre-emerge, 14 days after application, rating scale 0-100
Summary of the method: as §1

[6] = test system: green foxtail (Setaria viridis, SETVI); assay: as above; conditions: pre-emerge, 14 days after application, rating scale 0-100
Summary of the method: as §1

[7] = test system: large crabgrass (Digitaria sanguinalis, DIGSA); assay: as above; conditions: pre-emerge, 14 days after application, rating scale 0-100
Summary of the method: as §1

[8] = test system: lambsquarters (Chenopodium album, CHEAL); assay: as above; conditions: pre-emerge, 14 days after application, rating scale 0-100
Summary of the method: as §1

[9] = test system: johnsongrass (Sorghum halepense, SORHA); assay: as above; conditions: pre-emerge, 14 days after application, rating scale 0-100
Summary of the method: as §1

[10] = test system: sicklepod (Cassia obtusifolia, CASOB); assay: as above; conditions: pre-emerge, 14 days after application, rating scale 0-100
Summary of the method: as §1

[11] = test system: ivyleaf morningglory (Ipomoea hederacea, IPOHE); assay: as above; conditions: pre-emerge, 14 days after application, rating scale 0-100
Summary of the method: as §1

[12] = test system: upland rice (Oryza sp., var. Tebonnet, RICE); assay: Pre-emerge test, crop safety; conditions: pre-emerge, 14 days after application, rating scale 0-100
Summary of the method: (§2)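 Fourteen days after spraying, crop and weed injury was graded visually from 0, no effect, to 100, every plant dead. Test substances were dissolved in acetone and applied at 15–1000 g ai/ha with a flat-fan nozzle. Application was either pre-emergence, one day after sowing, or post-emergence at the 2–3 leaf stage.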

[13] = test system: field corn (Zea mays L., var. Dekalb 535, CORN); assay: Pre-emerge test, crop safety; conditions: pre-emerge, 14 days after application, rating scale 0-100
Summary of the method: as §2

[14] = test system: velvetleaf (Abutilon theophrasti, ABUTH); assay: Post-emerge test, greenhouse herbicide activity screening; conditions: rating scale 0-100 (0 no damage, 100 complete death), 14 days after application
Summary of the method: (§3)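 Visual ratings on a 0-100 scale (0 no damage, 100 all plants dead) were taken at 14 days after treatment. Rates of 15-1000 g ai/ha in acetone, 187 l/ha, were sprayed onto soil one day after planting (pre-emerge) or onto 2-3 leaf plants with 0.25% v/v surfactant (post-emerge).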

[15] = test system: barnyardgrass (Echinochloa crus-galli, ECHCG); assay: as above; conditions: rating scale 0-100 (0 no damage, 100 complete death), 14 days after application
Summary of the method: as §3

[16] = test system: green foxtail (Setaria viridis, SETVI); assay: as above; conditions: rating scale 0-100 (0 no damage, 100 complete death), 14 days after application
Summary of the method: as §3

[17] = test system: large crabgrass (Digitaria sanguinalis, DIGSA); assay: as above; conditions: rating scale 0-100 (0 no damage, 100 complete death), 14 days after application
Summary of the method: as §3

[18] = test system: redroot pigweed (Amaranthus retroflexus, AMARE); assay: as above; conditions: rating scale 0-100 (0 no damage, 100 complete death), 14 days after application
Summary of the method: as §3

[19] = test system: lambsquarters (Chenopodium album, CHEAL); assay: as above; conditions: rating scale 0-100 (0 no damage, 100 complete death), 14 days after application
Summary of the method: as §3

[20] = test system: johnsongrass (Sorghum halepense, SORHA); assay: as above; conditions: rating scale 0-100 (0 no damage, 100 complete death), 14 days after application
Summary of the method: as §3

[21] = test system: sicklepod (Cassia obtusifolia, CASOB); assay: as above; conditions: rating scale 0-100 (0 no damage, 100 complete death), 14 days after application
Summary of the method: as §3

[22] = test system: ivyleaf morningglory (Ipomoea hederacea, IPOHE); assay: as above; conditions: rating scale 0-100 (0 no damage, 100 complete death), 14 days after application
Summary of the method: as §3

[23] = test system: common ragweed (Ambrosia artemisizfolia L., AMBEL); assay: as above; conditions: rating scale 0-100 (0 no damage, 100 complete death), 14 days after application
Summary of the method: as §3

COc1c(Cl)cc(F)c(-n2c(=O)cc(C(F)(F)F)n(C)c2=O)c1CC(C)(Cl)C(=O)OCC1CCCO1 (stereo not shown) [14-49]
phytotoxicity rating AMARE ([1]; 63 g ai/ha): 100 | phytotoxicity rating AMARE ([1]; 250 g ai/ha): 100 | Post-emerge phytotoxicity rating RICE (crop damage) ([2]; Rate 63 g ai/ha): 50 | Post-emerge phytotoxicity rating RICE (crop damage) ([2]; Rate 250 g ai/ha): 95 | Post-emerge phytotoxicity rating CORN (crop damage) ([3]; Rate 63 g ai/ha): 80 | Post-emerge phytotoxicity rating CORN (crop damage) ([3]; Rate 250 g ai/ha): 100 | phytotoxicity rating ABUTH ([4]; 63 g ai/ha): 100 | phytotoxicity rating ABUTH ([4]; 250 g ai/ha): 100 | phytotoxicity rating ECHCG ([5]; 63 g ai/ha): 0 | phytotoxicity rating ECHCG ([5]; 250 g ai/ha): 100 | phytotoxicity rating SETVI ([6]; 63 g ai/ha): 50 | phytotoxicity rating SETVI ([6]; 250 g ai/ha): 100 | phytotoxicity rating DIGSA ([7]; 63 g ai/ha): 50 | phytotoxicity rating DIGSA ([7]; 250 g ai/ha): 100 | phytotoxicity rating CHEAL ([8]; 63 g ai/ha): 100 | phytotoxicity rating CHEAL ([8]; 250 g ai/ha): 100 | phytotoxicity rating SORHA ([9]; 63 g ai/ha): 20 | phytotoxicity rating SORHA ([9]; 250 g ai/ha): 90 | phytotoxicity rating CASOB ([10]; 63 g ai/ha): 0 | phytotoxicity rating CASOB ([10]; 250 g ai/ha): 70 | phytotoxicity rating IPOHE ([11]; 63 g ai/ha): 50 | phytotoxicity rating IPOHE ([11]; 250 g ai/ha): 90 | phytotoxicity rating RICE ([12]; 63 g ai/ha): 40 | phytotoxicity rating RICE ([12]; 250 g ai/ha): 95 | phytotoxicity rating CORN ([13]; 63 g ai/ha): 10 | phytotoxicity rating CORN ([13]; 250 g ai/ha): 95 | Post-emerge Herbicidal Activity, phytotoxicity rating ABUTH ([14]; Rate 63 g ai/ha): 100 | Post-emerge Herbicidal Activity, phytotoxicity rating ABUTH ([14]; Rate 250 g ai/ha): 100 | Post-emerge Herbicidal Activity, phytotoxicity rating ECHCG ([15]; Rate 63 g ai/ha): 100 | Post-emerge Herbicidal Activity, phytotoxicity rating ECHCG ([15]; Rate 250 g ai/ha): 100 | Post-emerge Herbicidal Activity, phytotoxicity rating SETVI ([16]; Rate 63 g ai/ha): 50 | Post-emerge Herbicidal Activity, phytotoxicity rating SETVI ([16]; Rate 250 g ai/ha): 100 | Post-emerge Herbicidal Activity, phytotoxicity rating DIGSA ([17]; Rate 63 g ai/ha): 70 | Post-emerge Herbicidal Activity, phytotoxicity rating DIGSA ([17]; Rate 250 g ai/ha): 95 | Post-emerge Herbicidal Activity, phytotoxicity rating AMARE ([18]; Rate 63 g ai/ha): 100 | Post-emerge Herbicidal Activity, phytotoxicity rating AMARE ([18]; Rate 250 g ai/ha): 100 | Post-emerge Herbicidal Activity, phytotoxicity rating CHEAL ([19]; Rate 63 g ai/ha): 100 | Post-emerge Herbicidal Activity, phytotoxicity rating CHEAL ([19]; Rate 250 g ai/ha): 100 | Post-emerge Herbicidal Activity, phytotoxicity rating SORHA ([20]; Rate 63 g ai/ha): 70 | Post-emerge Herbicidal Activity, phytotoxicity rating SORHA ([20]; Rate 250 g ai/ha): 95 | Post-emerge Herbicidal Activity, phytotoxicity rating CASOB ([21]; Rate 63 g ai/ha): 70 | Post-emerge Herbicidal Activity, phytotoxicity rating CASOB ([21]; Rate 250 g ai/ha): 95 | Post-emerge Herbicidal Activity, phytotoxicity rating IPOHE ([22]; Rate 63 g ai/ha): 100 | Post-emerge Herbicidal Activity, phytotoxicity rating IPOHE ([22]; Rate 250 g ai/ha): 100 | Post-emerge Herbicidal Activity, phytotoxicity rating AMBEL ([23]; Rate 63 g ai/ha): 100 | Post-emerge Herbicidal Activity, phytotoxicity rating AMBEL ([23]; Rate 250 g ai/ha): 100
